This is an account of results in patent US20110160196A1, “FACTOR XA INHIBITORS” (Millennium Pharmaceuticals, Inc., priority 2007, published 2011).

Some results are limits rather than exact numbers.

What is called IC50 is the point on the concentration scale where inhibition reaches its midpoint. Read a high IC50 as weaker potency in that assay.

T1 sequence (P00742 235-488 limits assumed): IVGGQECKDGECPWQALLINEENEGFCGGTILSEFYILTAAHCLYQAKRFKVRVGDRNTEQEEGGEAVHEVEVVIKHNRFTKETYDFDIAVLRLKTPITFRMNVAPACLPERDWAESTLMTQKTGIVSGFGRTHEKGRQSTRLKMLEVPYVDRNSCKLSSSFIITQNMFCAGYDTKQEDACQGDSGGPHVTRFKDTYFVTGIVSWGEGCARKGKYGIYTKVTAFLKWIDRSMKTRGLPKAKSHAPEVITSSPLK
T1 sequence (P00742 41-179 partner limits assumed): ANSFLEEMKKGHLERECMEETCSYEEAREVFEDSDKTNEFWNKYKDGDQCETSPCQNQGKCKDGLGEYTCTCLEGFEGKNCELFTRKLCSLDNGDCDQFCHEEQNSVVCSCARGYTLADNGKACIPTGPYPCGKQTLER

The test concerns the target T1, human plasma protein factor Xa (Homo sapiens, UniProt P00742).
T1 construct: The human plasma protein factor Xa was purchased; purchased Haematologic Technologies (Essex Junction, Vt.); host or cells: human plasma
The test is described as follows: Factor Xa IC50 determination (cleavage of paranitroanilide substrate S-2765). It is filed as biochemical. The following applies: factor Xa 1 nM, S-2765 100 μM, Tris buffered saline pH 7.4, read at 405 nm. An excerpt: This example illustrates methods for evaluating the compounds of the invention, along with results obtained for such assays. The in vitro and in vivo human Factor Xa activities of the inventive compounds can be determined by various procedures known in the art, such as a test for their ability to inhibit the activity of human plasma Factor Xa. […] The IC50 value is the concentration (in nM) of the compound required to provide 50% inhibition of human Factor Xa proteolytic activity.
An in vitro assay for detecting and measuring inhibition activity against Factor Xa is as follows:
The substrate S-2765 (Z-D-Arg-Gly-Arg-pNA.HCl) was obtained from Diapharma (West Chester, Ohio).
The human plasma protein factor Xa was purchased from Haematologic Technologies (Essex Junction, Vt.).
All assays, which are performed in 96-well microtiter plates, measure proteolytic activity of the enzyme (factor Xa) by following cleavage of a paranitroanilide peptide substrate. The assay buffer used for proteolytic assays was Tris buffered saline (20 mM Tris, 150 mM NaCl, 5 mM CaCl2, 0.1% Bovine serum albumin (BSA), 5% Dimethly Sulfoxide (DMSO) pH 7.4). In a 96-well microtiter plate, inhibitor was serially diluted to give a range of final concentrations from 0.01 nM to 10 μM. Duplicate sets of wells were assayed and control wells without inhibitor were included. Enzyme was added to each well, (factor Xa concentration=1 nM), the plate was shaken for 5 seconds and then incubated for 5 minutes at room temperature. S-2765 was added (100 μM final) and the plate was shaken for 5 seconds (final volume in each well was 200 μl). The degree of substrate hydrolysis was measured at 405 nm on a Thermomax plate reader (Molecular Devices, Sunnyvale, Calif.) for 2 minutes. The initial velocities of substrate cleavage (mOD/min), for each range of inhibitor concentrations, were fitted to a four parameter equation using Softmax data analysis software. The parameter C, derived from the resulting curve-fit, corresponded to the concentration for half maximal inhibition (IC50).
In the case of `NC(=O)c1cc(-n2ccccc2=O)ccc1-n1cc(CNC(=O)c2ccc(Cl)s2)nn1` [Compound 101, N-((1-(2-Carbamoyl-4-(2-oxopyridin-1(2H)-yl)phenyl)-1H-1,2,3-triazol-4-yl)methyl)-5-chlorothiophene-2-carboxamide], the IC50 is at most 100 nM.
The compound `NC1CCN(c2cc(-n3ccccc3=O)ccc2-n2cc(CNC(=O)c3ccc(Cl)s3)nn2)CC1` [Compound 17, N-((1-(2-(4-Aminopiperidin-1-yl)-4-(2-oxopyridin-1(2H)-yl)phenyl)-1H-1,2,3-triazol-4-yl)methyl)-5-chlorothiophene-2-carboxamide] returned an IC50 of at most 100 nM.
In the case of `O=C(NCc1cn(-c2ccc(-n3ccccc3=O)cc2OC(F)(F)F)nn1)c1ccc(Cl)s1` [Compound 99, 5-Chloro-N-((1-(4-(2-oxopyridin-1(2H)-yl)-2-(trifluoromethoxy)phenyl)-1H-1,2,3-triazol-4-yl)methyl)thiophene-2-carboxamide] it was at most 100 nM; in that of `O=C1CN(Cc2cc(-n3ccccc3=O)ccc2-n2cc(CNC(=O)c3ccc(Cl)s3)nn2)CCN1` [Compound 161, 5-Chloro-N-((1-(2-((3-oxopiperazin-1-yl)methyl)-4-(2-oxopyridin-1(2H)-yl)phenyl)-1H-1,2,3-triazol-4-yl)methyl)thiophene-2-carboxamide], at most 100 nM.
`O=C(NCc1cn(-c2ccc(-n3ccccc3=O)cc2N2CCOCC2)nn1)c1ccc(Cl)s1` [Compound 5, 5-Chloro-N-((1-(2-morpholino-4-(2-oxopyridin-1(2H)-yl)phenyl)-1H-1,2,3-triazol-4-yl)methyl)thiophene-2-carboxamide] displayed an IC50 of at most 100 nM.
The compound `O=C(NCc1cn(-c2ccc(-n3ccccc3=O)cc2C(=O)N2CCC(O)CC2)nn1)c1ccc(Cl)s1` [Compound 115, 5-Chloro-N-((1-(2-(4-hydroxypiperidine-1-carbonyl)-4-(2-oxopyridin-1(2H)-yl)phenyl)-1H-1,2,3-triazol-4-yl)methyl)thiophene-2-carboxamide] registered an IC50 of 100 to 500 nM.
In the case of `O=C(NCc1cn(-c2ccc(-n3ccccc3=O)cc2CN2CCSCC2)nn1)c1ccc(Cl)s1` [Compound 162, 5-Chloro-N-((1-(4-(2-oxopyridin-1(2H)-yl)-2-(thiomorpholinomethyl)phenyl)-1H-1,2,3-triazol-4-yl)methyl)thiophene-2-carboxamide] it was at most 100 nM; in that of `O=C(NCc1cn(-c2ccc(-n3ccccc3=O)cc2OCCO)nn1)c1ccc(Cl)s1` [Compound 75, 5-Chloro-N-((1-(2-(2-hydroxyethoxy)-4-(2-oxopyridin-1(2H)-yl)phenyl)-1H-1,2,3-triazol-4-yl)methyl)thiophene-2-carboxamide], at most 100 nM; in that of `COCCNC(=O)c1cc(-n2ccccc2=O)ccc1-n1cc(CNC(=O)c2ccc(Cl)s2)nn1` [Compound 106, N-((1-(2-((2-Methoxyethyl)carbamoyl)-4-(2-oxopyridin-1(2H)-yl)phenyl)-1H-1,2,3-triazol-4-yl)methyl)-5-chlorothiophene-2-carboxamide], 100 to 500 nM.
Take `O=C(NCc1cn(-c2ccc(N3CCCCC3=O)cc2N2CCS(=O)(=O)CC2)nn1)c1ccc(Cl)s1` [Compound 158, 5-Chloro-N-((1-(4-(2-oxopiperidin-1-yl)-2-((1,1-dioxo)thiomorpholino)phenyl)-1H-1,2,3-triazol-4-yl)methyl)thiophene-2-carboxamide]: the IC50 was at most 100 nM.
`Cc1cc(COc2cc(-n3ccccc3=O)ccc2-n2cc(CNC(=O)c3ccc(Cl)s3)nn2)no1` [Compound 179, 5-Chloro-N-((1-(2-((5-methylisoxazol-3-yl)methoxy)-4-(2-oxopyridin-1(2H)-yl)phenyl)-1H-1,2,3-triazol-4-yl)methyl)thiophene-2-carboxamide] returned a concentration for half-maximal inhibition (IC50) of at most 100 nM.
Turning to `CN(C)c1cc(-n2ccccc2=O)ccc1-n1cc(CNC(=O)c2ccc(Cl)s2)nn1` [Compound 2, 5-Chloro-N-((1-(2-(dimethylamino)-4-(2-oxopyridin-1(2H)-yl)phenyl)-1H-1,2,3-triazol-4-yl)methyl)thiophene-2-carboxamide], the IC50 is at most 100 nM.
To `CN(C)c1cc(-c2cc(-n3ccccc3=O)ccc2-n2cc(CNC(=O)c3ccc(Cl)s3)nn2)ccn1` [Compound 140, 5-Chloro-N-((1-(2-(2-(dimethylamino)pyridin-4-yl)-4-(2-oxopyridin-1(2H)-yl)phenyl)-1H-1,2,3-triazol-4-yl)methyl)thiophene-2-carboxamide] belongs at most 100 nM.
`O=C(NCc1cn(-c2ccc(-n3ccccc3=O)cc2OCCCOC(=O)N2CCOCC2)nn1)c1ccc(Cl)s1` [Compound 150, 3-(2-(4-((5-Chlorothiophene-2-carboxamido)methyl)-1H-1,2,3-triazol-1-yl)-5-(2-oxopyridin-1(2H)-yl)phenoxy)propyl morpholine-4-carboxylate] showed a half-maximal inhibitory concentration (IC50) of at most 100 nM.
In the case of `O=C(NCc1cn(-c2ccc(-n3ccccc3=O)cc2C(=O)NCCO)nn1)c1ccc(Cl)s1` [Compound 104, N-((1-(2-((2-Hydroxyethyl)carbamoyl)-4-(2-oxopyridin-1(2H)-yl)phenyl)-1H-1,2,3-triazol-4-yl)methyl)-5-chlorothiophene-2-carboxamide] it was 100 to 500 nM; in that of `Cn1ccnc1COc1cc(-n2ccccc2=O)ccc1-n1cc(CNC(=O)c2ccc(Cl)s2)nn1` [Compound 176, 5-Chloro-N-((1-(2-((1-methyl-1H-imidazol-2-yl)methoxy)-4-(2-oxopyridin-1(2H)-yl)phenyl)-1H-1,2,3-triazol-4-yl)methyl)thiophene-2-carboxamide], at most 100 nM; in that of `O=C(NCc1cn(-c2ccc(-n3ccccc3=O)cc2-c2ccnc(Cl)c2)nn1)c1ccc(Cl)s1` [Compound 133, 5-Chloro-N-((1-(2-(2-chloropyridin-4-yl)-4-(2-oxopyridin-1(2H)-yl)phenyl)-1H-1,2,3-triazol-4-yl)methyl)thiophene-2-carboxamide], at most 100 nM.
In the case of `O=C(NCc1cn(-c2ccc(-n3ccccc3=O)cc2OCCCN2CCOCC2)nn1)c1ccc(Cl)s1` [Compound 95, 5-Chloro-N-((1-(2-(3-morpholinopropoxy)-4-(2-oxopyridin-1(2H)-yl)phenyl)-1H-1,2,3-triazol-4-yl)methyl)thiophene-2-carboxamide] it was at most 100 nM.
Turning to `CS(=O)(=O)CCCOc1cc(-n2ccccc2=O)ccc1-n1cc(CNC(=O)c2ccc(Cl)s2)nn1` [Compound 83, 5-Chloro-N-((1-(2-(3-(methylsulfonyl)propoxy)-4-(2-oxopyridin-1(2H)-yl)phenyl)-1H-1,2,3-triazol-4-yl)methyl)thiophene-2-carboxamide], the IC50 is at most 100 nM.
In the case of `CN(C)CCCOc1cc(-n2ccccc2=O)ccc1-n1cc(CNC(=O)c2ccc(Cl)s2)nn1` [Compound 92, 5-Chloro-N-((1-(2-(3-(dimethylamino)propoxy)-4-(2-oxopyridin-1(2H)-yl)phenyl)-1H-1,2,3-triazol-4-yl)methyl)thiophene-2-carboxamide] it was at most 100 nM.
In the case of `O=C(NCc1cn(-c2ccc(-n3ccccc3=O)cc2N2CCS(=O)(=O)CC2)nn1)c1ccc(Cl)s1` [Compound 12, 5-Chloro-N-((1-(4-(2-oxopyridin-1(2H)-yl)-2-((1,1-dioxo-)thiomorpholino)phenyl)-1H-1,2,3-triazol-4-yl)methyl)thiophene-2-carboxamide] it was at most 100 nM; in that of `O=C(NCc1cn(-c2ccc(-n3ccccc3=O)cc2OCCc2ccncc2)nn1)c1ccc(Cl)s1` [Compound 91, 5-Chloro-N-((1-(4-(2-oxopyridin-1(2H)-yl)-2-(2-(pyridin-4-yl)ethoxy)phenyl)-1H-1,2,3-triazol-4-yl)methyl)thiophene-2-carboxamide], at most 100 nM.
On to `COc1ccc(-c2cc(-n3ccccc3=O)ccc2-n2cc(CNC(=O)c3ccc(Cl)s3)nn2)cn1` [Compound 143, 5-Chloro-N-((1-(2-(6-methoxypyridin-3-yl)-4-(2-oxopyridin-1(2H)-yl)phenyl)-1H-1,2,3-triazol-4-yl)methyl)thiophene-2-carboxamide], for which the IC50 is at most 100 nM.
`O=C(NCc1cn(-c2ccc(N3CCCCC3=O)cc2N2CCSCC2)nn1)c1ccc(Cl)s1` [Compound 157, 5-Chloro-N-((1-(4-(2-oxopiperidin-1-yl)-2-thiomorpholinophenyl)-1H-1,2,3-triazol-4-yl)methyl)thiophene-2-carboxamide] displayed a half-maximal inhibitory concentration (IC50) of at most 100 nM.
To `COCCOc1cc(-n2ccccc2=O)ccc1-n1cc(CNC(=O)c2ccc(Cl)s2)nn1` [Compound 76, 5-Chloro-N-((1-(2-(2-methoxyethoxy)-4-(2-oxopyridin-1(2H)-yl)phenyl)-1H-1,2,3-triazol-4-yl)methyl)thiophene-2-carboxamide] belongs at most 100 nM.
